US5750531A, “Pyrimidine derivatives and processes for the preparation thereof” (Yuhan Corporation, priority 1994, dated 1998)
Structures can show the parent of a compound that is named as a salt.

Experiments:
[1] = target: proton pump(H^+ /K^+ ATPase); assay: Inhibition of proton pump(H^+ /K^+ ATPase) activity; type: biochemical; settings: pH 6.0, 37° C., 30 minutes preincubation and 30 minutes reaction; read-out: IC50 Test compound
Experimental: Test 1: Inhibition of proton pump(H^+ /K^+ ATPase) activity
A proton pump enzyme source was prepared by the same method as in Experiment 1-1 of WO 94/14795. Further, the inhibitory effect of proton pump activity was measured by the same method as in Experiment 1-2 of WO 94/14795.
Namely, the proton pump activity stimulated by Mg^++ was used as a negative comparative group, and the activity stimulated by Mg^++ and K^+ was used as a positive comparative group. The comparative compound was omeprazole.
Test tubes were divided into 4 groups: Group 1 as negative comparative group(n=3), Group 2 as positive comparative group(n=3), Group 3(n=5×2) to be administered with the compound of the present invention and Group 4(n=5×2) to be administered with the comparative compound.
The inhibitory effects of Groups 3 and 4 on proton pump activity were measured by employing the compound prepared in Example and omeperazole, respectively, each of which was dissolved in dimethylsulfoxide at 5 different concentrations.
To each of Groups 1, 2, 3 and 4 were added 100 μl of magnesium chloride(40 mM) dissolved in 40 mM Tris-HCl buffer(pH 6.0) and 100μ of the enzyme source. Then, 50μ of potassium chloride(50 mM) and 50 μl of ammonium chloride(6 mM) dissolved in 40 mM Tris-HCl buffer(pH 6.0) were added to all groups except for Group 1.
10 μl of dimethylsulfoxide was added to each of Groups 1 and 2; and to Group 3 was added 10 μl of the solution in which the compound prepared in Example was dissolved in dimethylsulfoxide at 5 different concentrations(n=5×2). To Group 4, 10 μl of the solution prepared by dissolving omeprazole in dimethylsulfoxide at 5 different concentrations(37.6, 21.4, 12.2, 7.0 and 4.0 μM) was added(n=5×2). 40 mM Tris-HCl buffer(pH=6.0) was added thereto so as to make the total volume 400 μl.
Thereafter, the test tubes of each Group were placed at 37° C. for 30 minutes for the preincubation. 100 μl of ATP solution (6.6 mM) was added until the reaction volume became 500 μl. After the reaction was carried out at 37° C. for 30 minutes, 25% cold trichloroacetic acid was added to terminate the enzyme reaction. The released inorganic phosphate was measured by an automatic analyzer(Express 550, Corning).
The difference between Group 1 and Group 2 represents the proton pump activity activated by K^+ only. The inhibition percentages of Groups 3 and 4 were calculated from Litchfield-wilcoxon equation[see, e.g., J. pharmacol. Exp. Ther., 96, 99(1949)]. The concentrations of the test compounds which inhibit 50% of the proton pump activity are represented as IC50 in Table 1.

gastric secretion = assay: Inhibition of gastric secretion (pylorus ligation, Shay method); type: in vivo, Male Sprague-Dawley rats; settings: 20 mg/kg intraduodenally, 5 hours; for Rel. Conc.: acid concentration relative to omeprazole; for Relative Acid Output: acid output relative to omeprazole; for Rel. Vol.: gastric juice volume relative to omeprazole
Experimental: Inhibition of gastric secretion […] Under ether anesthesia, the abdomen was incised, and the pylorus was ligated. […] After closing the abdominal cavity, the rats were placed for 5 hours and then killed by cervical dislocation. The stomach was extracted to obtain gastric juice. The gastric juice was centrifuged at 1,000 g to remove precipitates. The amount and acidity of the gastric juice were measured. Relative volumes, relative acid concentrations and relative acid outputs of the test compounds were calculated from equations(I), (II) and (III) and the results are shown in Table 2. […] Group 3) (II) […] (III)

Question: Which results are given for Cc1cc(N2CCc3ccsc3C2C)nc(N(C)c2ccccc2)n1.Cl (stereo not drawn) [Example 54, 6-methyl-2-(N-methylphenylamino)-4-(7-methyl-4,5,6,7-tetrahydrothieno[2,3-c]pyridin-6-yl)pyrimidine hydrochloride]?
Answer: IC50 [1]: 20.6 µM; Rel. Conc. (gastric secretion): 0.23; Relative Acid Output (gastric secretion): 0.75; Rel. Vol. (gastric secretion): 0.86

Question: Which results are given for Cl.Fc1ccc(Nc2nc3c(c(N4CCc5ccccc5C4)n2)CCCC3)cc1 [Example 49, 2-(4-fluorophenylamino)-4-(1,2,3,4-tetrahydroisoquinolin-2-yl)-5,6,7,8-tetrahydroquinazoline hydrochloride]?
Answer: IC50 [1]: ~10.8 µM; Rel. Conc. (gastric secretion): 0.02; Relative Acid Output (gastric secretion): 0.16; Rel. Vol. (gastric secretion): 0.2

Question: How did the Rel. Conc. (gastric secretion) turn out when CCc1cc(N2CCc3ccccc3C2C)nc(N(C)c2ccccc2)n1.Cl (stereo not drawn) [Example 7, 6-ethyl-2-(N-methylphenylamino)-4-(1-methyl-1,2,3,4-tetrahydroisoquinolin-2-yl)pyrimidine hydrochloride] was run?
Answer: 0.09

Question: What about the “Relative Acid Output” value (gastric secretion) of the same compound?
Answer: 0.48

Question: What about the Rel. Vol. (gastric secretion) of the same compound?
Answer: 0.51

Question: Which IC50 [1] does the source give for Cc1nc(Nc2ccc(F)cc2)nc(N2CCc3ccccc3C2C)c1C.Cl (stereo not drawn) [Example 15, 5,6-dimethyl-2-(4-fluorophenylamino)-4-(1-methyl-1,2,3,4-tetrahydroisoquinolin-2-yl)pyrimidine hydrochloride] here?
Answer: 1.6 µM

Question: What about the Rel. Conc. (gastric secretion) of the same compound?
Answer: 1.06

Question: What about the “Relative Acid Output” value (gastric secretion) of the same compound?
Answer: 0.99

Question: And the Rel. Vol. (gastric secretion)?
Answer: 0.8

Question: What does the source list for CCc1cc(Nc2ccc(F)cc2)nc(N2CCc3ccccc3C2)n1.Cl [Example 63, 6-ethyl-4-(4-fluorophenylamino)-2-(1,2,3,4-tetrahydroisoquinolin-2-yl)pyrimidine hydrochloride]?
Answer: IC50 [1]: ~12 µM; Rel. Conc. (gastric secretion): 0.33; Relative Acid Output (gastric secretion): 0.72; Rel. Vol. (gastric secretion): 0.69

Question: Which IC50 [1] does the source give for CC1c2ccccc2CCN1c1nc(Nc2ccc(F)cc2)nc2c1CCC2 (stereo not drawn) [Example 30, hydrochloride] here?
Answer: ~8.4 µM

Question: What about the Rel. Conc. (gastric secretion) of the same compound?
Answer: 0.2

Question: What about the “Relative Acid Output” value (gastric secretion) of the same compound?
Answer: 0.39

Question: And the Rel. Vol. (gastric secretion)?
Answer: 0.33

Question: Which results are given for CCc1cc(Nc2ccc(F)cc2C)nc(N2CCc3ccccc3C2C)n1.Cl (stereo not drawn) [Example 61, 6-Ethyl-4-(2-methyl-4-fluorophenylamino)-2-(1-methyl-1,2,3,4-tetrahydroisoquinolin-2-yl)pyrimidine hydrochloride]?
Answer: IC50 [1]: ~12.5 µM; Rel. Conc. (gastric secretion): 0.22; Relative Acid Output (gastric secretion): 0.40; Rel. Vol. (gastric secretion): 0.32

Question: With Cc1nc(N(C)c2ccccc2)nc(N2CCc3ccccc3C2C)c1C.Cl (stereo not drawn) [Example 18, 5,6-dimethyl-2-(N-methylphenylamino)-4-(1-methyl-1,2,3,4-tetrahydroisoquinolin-2-yl)pyrimidine hydrochloride] as the compound, how does the IC50 [1] read?
Answer: 4.2 µM

Question: And the Rel. Conc. (gastric secretion)?
Answer: 1.82

Question: What about the “Relative Acid Output” value (gastric secretion) of the same compound?
Answer: 1.39

Question: What about the Rel. Vol. (gastric secretion) of the same compound?
Answer: 1.72

Question: Which IC50 [1] does the source give for CCc1cc(N(C)c2ccccc2)nc(N2CCc3ccccc3C2)n1.Cl [Example 64, 6-ethyl-4-(N-methylphenylamino)-2-(1,2,3,4-tetrahydroisoquinolin-2-yl)pyrimidine hydrochloride] here?
Answer: ~10 µM

Question: And the Rel. Conc. (gastric secretion)?
Answer: 0.26

Question: And the “Relative Acid Output” value (gastric secretion)?
Answer: 0.40

Question: And the Rel. Vol. (gastric secretion)?
Answer: 0.34

Question: CCc1cc(N2CCc3ccccc3C2)nc(Nc2ccc(F)cc2)n1.Cl [Example 38, 6-ethyl-2-(4-fluorophenylamino)-4-(1,2,3,4-tetrahydroisoquinolin-2-yl)pyrimidine hydrochloride] was tested. Which IC50 [1] did it give?
Answer: 2.2 µM

Question: And the Rel. Conc. (gastric secretion)?
Answer: 0.37

Question: And the “Relative Acid Output” value (gastric secretion)?
Answer: 0.74

Question: And the Rel. Vol. (gastric secretion)?
Answer: 0.74

Question: Which results are given for Cc1cc(N2CCc3ccccc3C2C)nc(Nc2ccc(F)cc2)n1.Cl (stereo not drawn) [Example 3, 6-methyl-4-(1-methyl-1,2,3,4-tetrahydroisoquinolin-2-yl)-2-(4-fluorophenylamino)pyrimidine hydrochloride]?
Answer: IC50 [1]: 3.5 µM; Rel. Conc. (gastric secretion): 0.81; Relative Acid Output (gastric secretion): 0.87; Rel. Vol. (gastric secretion): 0.76

Question: CCc1nc(N(C)c2ccccc2)nc(N2CCc3ccccc3C2C)c1C.Cl (stereo not drawn) [Example 28, 5-methyl-6-ethyl-2-(N-methylphenylamino)-4-(1-methyl-1,2,3,4-tetrahydroisoquinolin-2-yl)pyrimidine hydrochloride] was tested. Which IC50 [1] did it give?
Answer: > 15 µM

Question: What about the Rel. Conc. (gastric secretion) of the same compound?
Answer: 0.44

Question: And the “Relative Acid Output” value (gastric secretion)?
Answer: 0.78

Question: And the Rel. Vol. (gastric secretion)?
Answer: 0.71

Question: How did the “Relative Acid Output” value (gastric secretion) turn out when Cc1nc(N2CCc3ccccc3C2C)nc(N(C)c2ccccc2)c1C.Cl (stereo not drawn) [Example 71, 5,6-dimethyl-4-(N-methylphenylamino)-2-(1-methyl-1,2,3,4-tetrahydroisoquinolin-2-yl)pyrimidine hydrochloride] was run?
Answer: 0.16

Question: And the Rel. Vol. (gastric secretion)?
Answer: 0.25

Question: What does the source list for Cc1nc(N2CCc3ccccc3[C@@H]2C)nc(N(C)c2ccccc2)c1C.Cl [Example 73, (S)-5,6-dimethyl-4-(N-methylphenylamino)-2-(1-methyl-1,2,3,4-tetrahydroisoquinolin-2-yl)pyrimidine hydrochloride]?
Answer: Relative Acid Output (gastric secretion): 0.13; Rel. Vol. (gastric secretion): 0.18

Question: Which Rel. Conc. (gastric secretion) does the source give for CCc1nc(N2CCc3ccccc3C2C)nc(Nc2ccc(F)cc2C)c1C.Cl (stereo not drawn) [Example 80, 5-methyl-6-ethyl-4-(2-methyl-4-fluorophenylamino)-2-(1-methyl-1,2,3,4-tetrahydroisoquinolin-2-yl)pyrimidine hydrochloride] here?
Answer: 0.29

Question: What about the “Relative Acid Output” value (gastric secretion) of the same compound?
Answer: 0.44

Question: And the Rel. Vol. (gastric secretion)?
Answer: 0.32

Question: How did the Rel. Conc. (gastric secretion) turn out when Cc1cc(N2CCc3ccccc3C2C)nc(N(C)c2ccccc2)n1.Cl (stereo not drawn) [Example 4, 6-methyl-2-(N-methylphenylamino)-4-(1-methyl-1,2,3,4-tetrahydroisoquinolin-2-yl)pyrimidine hydrochloride] was run?
Answer: 0.56

Question: And the “Relative Acid Output” value (gastric secretion)?
Answer: 0.87

Question: And the Rel. Vol. (gastric secretion)?
Answer: 0.99

Question: Which results are given for Cc1nc(N2CCc3ccccc3[C@H]2C)nc(N(C)c2ccccc2)c1C.Cl [Example 72, (R)-5,6-dimethyl-4-(N-methylphenylamino)-2-(1-methyl-1,2,3,4-tetrahydroisoquinolin-2-yl)pyrimidine hydrochloride]?
Answer: Rel. Conc. (gastric secretion): 0.16; Relative Acid Output (gastric secretion): 0.25; Rel. Vol. (gastric secretion): 0.34

Question: For CC1c2ccccc2CCN1c1nc(N(C)c2ccccc2)nc2c1CCCC2.Cl (stereo not drawn) [Example 33, 2-(N-methylphenylamino)-4-(1-methyl-1,2,3,4-tetrahydroisoquinoline-2-yl)-5,6,7,8-tetrahydroquinazoline hydrochloride], which Rel. Conc. (gastric secretion) is on record?
Answer: 1.13

Question: And the “Relative Acid Output” value (gastric secretion)?
Answer: 0.94

Question: What about the Rel. Vol. (gastric secretion) of the same compound?
Answer: 0.93

Question: What does the source list for CCc1nc(Nc2ccc(F)cc2C)nc(N2CCc3ccsc3C2C)c1C.Cl (stereo not drawn) [Example 56, 5-methyl-2-(2-methyl-4-fluorophenylamino)-4-(7-methyl-4,5,6,7-tetrahydrothieno[2,3-c]pyridin-6-yl)-6-ethylpyrimidine hydrochloride]?
Answer: Rel. Conc. (gastric secretion): 0.08; Relative Acid Output (gastric secretion): 0.08; Rel. Vol. (gastric secretion): 0.01

Question: Cc1nc(N2CCc3ccsc3C2C)nc(N(C)c2ccccc2)c1C.Cl (stereo not drawn) [Example 79, 5,6-dimethyl-4-(N-methylphenylamino)-2-(7-methyl-4,5,6,7-tetrahydrothieno[2,3-c]pyridin-6-yl)pyrimidine hydrochloride] was tested. Which Rel. Conc. (gastric secretion) did it give?
Answer: 1.28

Question: What about the “Relative Acid Output” value (gastric secretion) of the same compound?
Answer: 0.49

Question: And the Rel. Vol. (gastric secretion)?
Answer: 0.54

Question: What does the source list for CCCc1cc(N2CCc3ccccc3C2C)nc(N(C)c2ccccc2)n1.Cl (stereo not drawn) [Example 11, 2-(N-methylphenylamino)-4-(1-methyl-1,2,3,4-tetrahydroisoquinolin-2-yl)-6-propylpyrimidine hydrochloride]?
Answer: Rel. Conc. (gastric secretion): 0.41; Relative Acid Output (gastric secretion): 0.82; Rel. Vol. (gastric secretion): 0.99

Question: Which results are given for Cc1cc(N2CCc3ccccc3C2)nc(N(C)c2ccccc2)n1.Cl [Example 36, 6-methyl-2-(N-methylphenylamino)-4-(1,2,3,4-tetrahydroisoquinolin-2-yl)pyrimidine hydrochloride]?
Answer: Rel. Conc. (gastric secretion): 0.05; Relative Acid Output (gastric secretion): 0.41; Rel. Vol. (gastric secretion): 0.65

Question: What does the source list for Cc1nc(N2CCc3ccccc3C2)nc(N(C)c2ccccc2)c1C.Cl [Example 76, 5,6-dimethyl-4-(N-methylphenylamino)-2-(1,2,3,4-tetrahydroisoquinolin-2-yl)pyrimidine hydrochloride]?
Answer: Rel. Conc. (gastric secretion): 0.17; Relative Acid Output (gastric secretion): 0.33; Rel. Vol. (gastric secretion): 0.28
